Test results taken from PubChem BioAssay (NCI).
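How tested: cells in 96-well plates exposed to compound for 48 hours at five concentrations. Here, GI50 denotes the concentration required for 50% inhibition of growth. TGI is the concentration that stops growth completely.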

What was measured:
Assay in all cases: inhibition of tumour cell growth, NCI panel, 48 h
IGROV1 ovarian = test system: IGROV1 ovarian
OVCAR-4 ovarian = test system: OVCAR-4 ovarian
HS 578T breast = test system: HS 578T breast
LOX IMVI melanoma = test system: LOX IMVI melanoma
SNB-19 CNS = test system: SNB-19 CNS
HT29 colon = test system: HT29 colon
MDA-N = test system: MDA-N
TK-10 renal = test system: TK-10 renal
MOLT-4 leukemia = test system: MOLT-4 leukemia
786-0 renal = test system: 786-0 renal
A549 NSCLC = test system: A549 NSCLC

Compound	TGI (IGROV1 ovarian)	TGI (OVCAR-4 ovarian)	TGI (HS 578T breast)	TGI (LOX IMVI melanoma)	TGI (SNB-19 CNS)	TGI (HT29 colon)	TGI (MDA-N)	TGI (TK-10 renal)	TGI (MOLT-4 leukemia)	TGI (786-0 renal)	TGI (A549 NSCLC)	GI50 (A549 NSCLC)	GI50 (IGROV1 ovarian)	GI50 (OVCAR-4 ovarian)	GI50 (HS 578T breast)	GI50 (LOX IMVI melanoma)	GI50 (SNB-19 CNS)	GI50 (HT29 colon)	GI50 (TK-10 renal)	GI50 (MOLT-4 leukemia)
O=C(O)c1ccccc1Sc1ccc(C=C2NC(=S)N(c3ccccc3)C2=O)s1	> 100 µM	59.8 µM	> 100 µM	> 100 µM	> 100 µM	> 100 µM	> 100 µM	> 100 µM	> 100 µM	35.8 µM										
O=C1CC2(CCN(Cc3ccccc3)CC2)C(=O)N1N1CCCCC1	> 100 µM		> 100 µM	> 100 µM	> 100 µM	> 100 µM	> 100 µM	> 100 µM	> 100 µM	> 100 µM	> 100 µM									
O=[N+]([O-])C(/C=C(\Cl)[N+](=O)[O-])=C(N1CCOCC1)N1CCOCC1	> 100 µM	53.9 µM	> 100 µM	> 100 µM	> 100 µM	83.1 µM	> 100 µM	> 100 µM	> 100 µM	30.7 µM	39.3 µM									
CC(NC(CC12CC3CC(CC(C3)C1)C2)C(N)=O)c1ccccc1 (stereo not given)	> 100 µM	98.5 µM		30.7 µM	> 100 µM	48.1 µM	75.6 µM	> 100 µM	39.6 µM		> 100 µM									
c1ccc(-c2cc(-c3ccccc3)nc(-c3ccncc3)c2)cc1	> 100 µM	> 100 µM	> 100 µM	> 100 µM	> 100 µM		> 100 µM	> 100 µM	> 100 µM	> 100 µM	> 100 µM									
CCn1c(=O)c2nc(SC)sc2n(-c2ccccc2)c1=S	> 100 µM	> 100 µM	> 100 µM	> 100 µM	> 100 µM	> 100 µM	> 100 µM	> 100 µM	> 100 µM	> 100 µM	> 100 µM									
COc1ccc(C(CC(=O)c2cccs2)C(=O)c2ccc3c(c2)OCO3)cc1 (stereo not given)	> 100 µM	> 100 µM	> 100 µM	> 100 µM			> 100 µM	> 100 µM	> 100 µM		> 100 µM									
O=C(c1ccccc1)c1nn(-c2cccc(Cl)c2)c2nc3nc(-c4ccccc4)cc(=O)n3nc12	> 25 µM	> 25 µM	> 25 µM	> 25 µM	> 25 µM	> 25 µM		> 25 µM	> 25 µM		> 25 µM	> 25 µM	> 25 µM	> 25 µM	> 25 µM	> 25 µM	> 25 µM	> 25 µM	> 25 µM	> 25 µM
C/C(=C\COP(=O)(O)OP(=O)(O)O)CC/C=C(\C)CNc1c(F)c(F)c(F)c(F)c1F	> 100 µM	> 100 µM	> 100 µM	> 100 µM	> 100 µM	> 100 µM		> 100 µM	> 100 µM	> 100 µM	> 100 µM									
Cc1nc2nnc(CCCCCCCCc3nnc4nc(C)[nH]n34)n2[nH]1	> 100 µM	> 100 µM		> 100 µM	> 100 µM	> 100 µM	> 100 µM	> 100 µM	> 100 µM	> 100 µM	> 100 µM									
C#C[C@]1(O)CC[C@H]2[C@@H]3CCC4=C/C(=N/OC(=O)c5cccc6cc7ccccc7nc56)CC[C@@H]4[C@H]3CC[C@@]21CC	> 100 µM	> 100 µM	> 100 µM	> 100 µM	> 100 µM	> 100 µM	> 100 µM		> 100 µM	> 100 µM	> 100 µM									
CC(=O)CC(O)(C(F)(F)Cl)C(F)(Cl)Cl (stereo not given)	> 10 µM	> 10 µM	> 10 µM	> 10 µM	> 10 µM	> 10 µM	> 10 µM	> 10 µM		> 10 µM	> 10 µM									
O=C(OC1C#CCSCC#C/C=C\1)c1ccc2c(c1)C(=O)c1ccccc1C2=O (stereo not given)	> 100 µM	> 100 µM	> 100 µM	> 100 µM	59.7 µM	> 100 µM	> 100 µM	80.6 µM	> 100 µM		> 100 µM									
NC1=Nc2ncccc2C(=O)NN1	> 10 µM		> 10 µM	> 10 µM	> 10 µM	> 10 µM	> 10 µM	> 10 µM	> 10 µM	> 10 µM	> 10 µM									
O=C(Cn1c(=O)oc2ccccc21)N(c1ccccc1)c1ccccc1	> 100 µM		> 100 µM	> 100 µM	> 100 µM	> 100 µM	> 100 µM	> 100 µM	> 100 µM	> 100 µM										
Clc1ccc(Cc2nc3cc4ccccc4cc3[nH]2)cc1Cl	16.7 µM	36.8 µM	64.5 µM	60.8 µM	46 µM	28.5 µM		39.8 µM	4.03 µM	> 100 µM	68.9 µM									
N#CCCN(C(=O)Nc1ccc(NC(=O)N(CCC#N)c2ccccc2)cc1)c1ccccc1	> 100 µM	> 100 µM	> 100 µM	> 100 µM	> 100 µM	> 100 µM	> 100 µM		> 100 µM	> 100 µM	> 100 µM									
O=C(OC[C@H]1C[C@H]2C(=O)OCCC[C@H]2O1)c1ccccc1	> 100 µM	> 100 µM	> 100 µM		> 100 µM	> 100 µM	> 100 µM	> 100 µM	> 100 µM	> 100 µM	> 100 µM									
C=CCSC1=N/C(=C\c2ccc(C)cc2)C(=O)N1CC=C	> 100 µM	> 100 µM	> 100 µM	82.3 µM	> 100 µM	34.1 µM	45.1 µM	> 100 µM		58.4 µM	65.4 µM									
CCOC(=O)c1c(NS(=O)(=O)c2ccccc2)sc2c1CCCC2	> 100 µM		> 100 µM		> 100 µM	> 100 µM	> 100 µM	> 100 µM	> 100 µM	> 100 µM	> 100 µM									
